This is an account of results in PubChem BioAssay (NCI).

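How tested: cells in 96-well plates exposed to compound for 48 hours at five concentrations. Abbreviation: GI50, concentration required for 50% inhibition of growth. TGI: concentration producing complete growth inhibition.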

Some test systems named below: BT-549 breast; MCF7 breast; MDA-N; NCI/ADR-RES ovarian; T-47D breast.
Common to all, as to experiment: NCI tumour cell line growth inhibition, 48 h

Consider `Nc1nc(N)c(N=Nc2ccc(C(=O)O)c(O)c2)c(N)n1`, for which the TGI in the test with BT-549 breast, in the test with MCF7 breast, with MDA-N and with NCI/ADR-RES ovarian was over 100 µM in each case.
Regarding `COC(=O)C1=C(C(=O)OC)C2OC1c1cc3ccccc3cc12`, the TGI turned out to be 12 µM in the test on BT-549 breast; 7.49 µM with T-47D breast; 59.9 µM in the test with MCF7 breast; 17.5 µM in the test with MDA-N; 30.7 µM with NCI/ADR-RES ovarian.
Take `O=C(Nc1cccnc1)c1ccc2ccc3ccc(C(=O)Nc4cccnc4)nc3c2n1`: the GI50 in the test with T-47D breast is 0.257 µM; in the test with MCF7 breast it was 0.137 µM; in the test with NCI/ADR-RES ovarian, over 100 µM. For the same compound, the TGI in the test on T-47D breast, with MCF7 breast and with NCI/ADR-RES ovarian was over 100 µM each time.
For `CCOC(=O)c1csc(NC(=O)COc2cccc(/C=C3\CSc4ccccc4C3=O)c2)n1`, the GI50 in the test on BT-549 breast is 2.29 µM; in the test on T-47D breast, 6.79 µM; in the test on MCF7 breast, 1.13 µM; in the test with NCI/ADR-RES ovarian, 2.46 µM. In addition, the TGI was 6.22 µM in the test with BT-549 breast, 26.7 µM in the test with T-47D breast, 7.25 µM with MCF7 breast and 5.66 µM with NCI/ADR-RES ovarian.
As for `COc1ccc2c(c1)N(CCO)C1=C(C(=O)OC1)C2c1ccccc1` (configuration not stated), the GI50 in the test with BT-549 breast is 4.03 µM; in the test with MCF7 breast it was 1.86 µM; with NCI/ADR-RES ovarian it was 0.992 µM. For the same compound, the TGI in the test on BT-549 breast is over 50 µM; in the test on MCF7 breast, over 50 µM; with NCI/ADR-RES ovarian, 2.66 µM.
For the compound `O=C(Nc1nc(-c2ccc(Cl)cc2)nc2c1sc(=S)n2-c1ccccc1)C(F)(F)F`, the GI50 was 6.37 µM in the test with BT-549 breast, 2.05 µM in the test on T-47D breast, 10.2 µM in the test with MCF7 breast and 3.58 µM in the test with NCI/ADR-RES ovarian. The TGI with BT-549 breast is 38.2 µM; in the test on T-47D breast, 5.05 µM; with MCF7 breast, over 100 µM; in the test on NCI/ADR-RES ovarian, 19.3 µM.
For the compound `CC(O[Si](c1ccccc1)(c1ccccc1)C(C)(C)C)[C@H](NC(=O)OC(C)(C)C)C(=O)O` (some centres not stated), the TGI was over 100 µM with T-47D breast, over 100 µM with MCF7 breast, 97.1 µM in the test with MDA-N and over 100 µM in the test with NCI/ADR-RES ovarian.
In the case of `CCCN1C(=O)/C(=C/c2ccc(O)cc2)SC1=Nc1ccc(OC)cc1`, the figures for the GI50 in the test on BT-549 breast, in the test on MCF7 breast and in the test with NCI/ADR-RES ovarian were 15.3 µM, 23.2 µM and 14 µM, respectively. For the same compound, the TGI worked out at 34.9 µM in the test on BT-549 breast, 94.2 µM in the test on MCF7 breast and 29.5 µM in the test on NCI/ADR-RES ovarian.
Regarding `CC(=O)O[C@H]1C(=O)[C@@]2(C)[C@H]([C@H](OC(=O)c3ccccc3)[C@@]3(O)C[C@H](O)C(C)=C1C3(C)C)[C@]1(OC(C)=O)CO[C@@H]1C[C@@H]2O`, the TGI is over 100 µM in the test with BT-549 breast; over 100 µM in the test with T-47D breast; over 100 µM in the test with MCF7 breast; 17.1 µM in the test on MDA-N; over 100 µM in the test with NCI/ADR-RES ovarian.
As to `CC[C@@H](C)Nc1cc(C(=O)NC2CC3CCC(C2)N3c2ccc(C(=O)C3CC3)cn2)c(C)cc1C(N)=O` (some centres not stated), the GI50 in the test with BT-549 breast was 5.54 µM; in the test with T-47D breast it was 0.0378 µM; with MCF7 breast it was under 0.0172 µM; in the test on NCI/ADR-RES ovarian, 1.06 µM. Moreover, the TGI in the test on BT-549 breast is over 84.9 µM; with T-47D breast, 36 µM; with MCF7 breast it was over 59.6 µM; in the test with NCI/ADR-RES ovarian, over 100 µM.
Regarding `N#Cc1c(N)nc(N2CCSCC2)c(C#N)c1-c1ccc(O)cc1`, the GI50 with BT-549 breast was 23.3 µM; in the test on T-47D breast, 12.8 µM; in the test on MCF7 breast, 14.1 µM; in the test on NCI/ADR-RES ovarian it was 20.6 µM. For the same compound, the TGI was 98 µM with BT-549 breast, 85.8 µM in the test with T-47D breast, 40.2 µM in the test on MCF7 breast and 67.1 µM with NCI/ADR-RES ovarian.
`CC1CC(C)C2=NOS3=C2C1=NO3` (configuration not stated): the TGI with T-47D breast, with MCF7 breast, in the test with MDA-N and with NCI/ADR-RES ovarian was over 100 µM throughout.
Turning to `CCCCCCN(C)Cc1ccc(OCCOc2ccc(CN(C)CCCCCC)cc2)cc1`, the GI50 in the test on BT-549 breast was 1.47 µM; in the test with T-47D breast, 1.32 µM; in the test with MCF7 breast, 1.4 µM; in the test on NCI/ADR-RES ovarian, 1.38 µM. The TGI was determined as 3.01 µM in the test on BT-549 breast, 3.26 µM in the test on T-47D breast, 2.79 µM in the test on MCF7 breast and 3.16 µM in the test on NCI/ADR-RES ovarian.
Regarding `COC(=O)c1ccc2c(c1)c1c(C)c3ccncc3c(C)c1n2C`, the GI50 in the test on BT-549 breast is 0.925 µM; with T-47D breast, 0.661 µM; in the test with MCF7 breast it was 0.267 µM; in the test with NCI/ADR-RES ovarian, 0.411 µM. The TGI was 36.2 µM with BT-549 breast, over 100 µM in the test with T-47D breast, 1.77 µM in the test on MCF7 breast and 62.7 µM with NCI/ADR-RES ovarian.
On to `C[C@@H]1CC[C@@H]2[C@@H](C)C[C@H]3[C@@H]4C(C)(C)OC(=O)[C@]4(C)C(=O)[C@@]23C1=O`, for which the TGI with BT-549 breast, with T-47D breast, in the test with MCF7 breast and in the test with NCI/ADR-RES ovarian was over 100 µM each time. The GI50 in the test with T-47D breast was 65.3 µM.
As for `CC[C@]12C=CCN3CC[C@@]4(c5ccc(OC)cc5N(C)[C@H]4[C@@](O)(C(=O)OC)[C@@H]1OC(=O)CCC(=O)N[C@H](Cc1c[nH]c4ccccc14)C(=O)OC)[C@@H]32`, the GI50 is 7.68 µM with BT-549 breast, 11 µM in the test with T-47D breast, 2.98 µM with MCF7 breast and 11.3 µM in the test on NCI/ADR-RES ovarian. In addition, the TGI in the test on BT-549 breast was 41 µM; with T-47D breast it was 30.3 µM; with MCF7 breast it was 16.1 µM; with NCI/ADR-RES ovarian it was 37.8 µM.
For the compound `CCOc1c(C#N)c2c(N)ncnc2n1C1OC(CO)C(O)C1O` (configuration not stated), the GI50 in the test with BT-549 breast is 2.58 µM; in the test on T-47D breast, 1.98 µM; in the test with MCF7 breast, 2.45 µM; in the test with NCI/ADR-RES ovarian it was 4.51 µM. In addition, the TGI in the test with BT-549 breast is 19 µM; in the test on T-47D breast it was 20.2 µM; in the test on MCF7 breast it was over 100 µM; in the test on NCI/ADR-RES ovarian, over 100 µM.
Turning to `COc1cc(/C=C\c2cc(/C=C\c3ccc(O)c(OC)c3)n(C(=O)CNc3ccc(Cl)cc3)n2)ccc1O`, the GI50 in the test with BT-549 breast is 3 µM; in the test on T-47D breast, 2.79 µM; in the test on MCF7 breast it was 2.34 µM; with NCI/ADR-RES ovarian, 3.75 µM. The TGI in the test with BT-549 breast stood at 47 µM; in the test with T-47D breast, 16 µM; in the test on MCF7 breast, 11.9 µM; in the test on NCI/ADR-RES ovarian, 41.8 µM.
